Data as given in patent publication US11279703B2, “Fused pyrimidine compounds as BRD4 and JAK2 dual inhibitors and methods for use thereof” (APTOSE BIOSCIENCES INC., priority 2016, dated 2022).
pIC50: −log10 of the molar value.

Columns and labels:
[1] = molecular target: BRD4-BD1 (Homo sapiens (Human), UniProt O60885); test: AlphaLisa bromodomain binding assay, BRD4-BD1; conditions: Table 6; read-out: BRD4(1) IC50
[2] = molecular target: BRD4-BD2 (Homo sapiens (Human), UniProt O60885); test: AlphaLisa bromodomain binding assay, BRD4-BD2; conditions: Table 6; read-out: BRD4(2) IC50
Source text: (§1) An AlphaLisa assay was used to observe bromodomain binding and measure IC50s for the compounds disclosed herein. An AlphaLisa assay is a bead-based assay used to detect interactions between bromodomains and polyacetylated histone peptides. Donor and acceptor beads bound to target and ligand are brought into proximity by this protein-protein interaction.
(§2) Equipment Required • 1. […] Plate centrifuge • 3. Plate shaker • 4. […] Single channel and multi-channel pipettes • 6. Microplate reader (Pherastar)
(§3) Stock and Final Assay Concentrations (FAC) • 1. All reference and test compounds are made at a concentration of 10 mM in DMSO. Compounds are serially diluted in DMSO and a FAC starting from 10 μM to 10 point 3 fold serial dilutions is arrived. FAC of DMSO is 1%. • 2. Enzyme stock and FAC
(§4) Biotinylated substrate (Acetylated histone H4, biotinylated substrate—cat no. AS64989-025, Anaspec) stock and FAC
(§5) • 4. Acceptor and donor beads stock and FAC
(§6) Buffers • For the enzyme and substrate dilution following buffer is used (for 50 ml) • HEPES: 50 mM 2.5 ml • NaCl: 25 mM 1.25 ml • DTT: 10 mM 0.05 ml • BSA: 0.1% 0.05 g • MilliQ water: 45.7 ml • For dilution of acceptor and donor beads AlphaLISA 5× epigenetics Buffer Perkin Elmer (Cat: AL008C) is used at 1× concentration.
(§7) Procedure • 1. […] Tap the plate gently • 3. […] Cover with plate sealer • 5. […] Incubate the plate at room temperature for 10 minutes • 7. Add 10 μl of the substrate • 8. Cover with plate sealer • 9. […] Cover with plate sealer • 14. […] Cover with plate sealer • 18.
(§8) The percent inhibition is calculated in the excel analysis template and the IC50 values are subsequently determined using a sigmoidal dose-response curve (variable slope) using GraphPad Prism® 5 software.

[3] = molecular target: BRD2-BD1 (Homo sapiens (Human), UniProt P25440); test: AlphaLisa bromodomain binding assay, BRD2-BD1; conditions: Table 6; read-out: BRD2(1) IC50
BRD2-BD1, sequence (P25440 74-180): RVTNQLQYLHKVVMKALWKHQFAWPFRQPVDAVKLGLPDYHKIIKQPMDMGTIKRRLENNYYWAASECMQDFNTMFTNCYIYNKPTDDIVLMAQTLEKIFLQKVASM
Source text: as §1, §2, §3, §4, §5, §6, §7, §8

[4] = molecular target: BRD3-BD1 (Homo sapiens (Human), UniProt Q15059); test: AlphaLisa bromodomain binding assay, BRD3-BD1; conditions: Table 6; read-out: BRD3(1) IC50
BRD3-BD1, sequence (Q15059 34-140): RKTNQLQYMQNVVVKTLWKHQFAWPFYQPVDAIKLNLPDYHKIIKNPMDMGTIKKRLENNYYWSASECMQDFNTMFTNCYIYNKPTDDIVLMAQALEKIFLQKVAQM
Source text: as §1, §2, §3, §4, §5, §6, §7, §8

[5] = molecular target: BRDT-BD1 (Homo sapiens (Human), UniProt Q58F21); test: AlphaLisa bromodomain binding assay, BRDT-BD1; conditions: Table 6; read-out: BRDT(1) IC50
Source text: as §1, §2, §3, §4, §5, §6, §7, §8

[6] = molecular target: JAK2 (Homo sapiens (Human), UniProt O60674); test: HTRF kinase assay, JAK2; assay type: biochemical; conditions: Table 6
JAK2, sequence (O60674 whole entry): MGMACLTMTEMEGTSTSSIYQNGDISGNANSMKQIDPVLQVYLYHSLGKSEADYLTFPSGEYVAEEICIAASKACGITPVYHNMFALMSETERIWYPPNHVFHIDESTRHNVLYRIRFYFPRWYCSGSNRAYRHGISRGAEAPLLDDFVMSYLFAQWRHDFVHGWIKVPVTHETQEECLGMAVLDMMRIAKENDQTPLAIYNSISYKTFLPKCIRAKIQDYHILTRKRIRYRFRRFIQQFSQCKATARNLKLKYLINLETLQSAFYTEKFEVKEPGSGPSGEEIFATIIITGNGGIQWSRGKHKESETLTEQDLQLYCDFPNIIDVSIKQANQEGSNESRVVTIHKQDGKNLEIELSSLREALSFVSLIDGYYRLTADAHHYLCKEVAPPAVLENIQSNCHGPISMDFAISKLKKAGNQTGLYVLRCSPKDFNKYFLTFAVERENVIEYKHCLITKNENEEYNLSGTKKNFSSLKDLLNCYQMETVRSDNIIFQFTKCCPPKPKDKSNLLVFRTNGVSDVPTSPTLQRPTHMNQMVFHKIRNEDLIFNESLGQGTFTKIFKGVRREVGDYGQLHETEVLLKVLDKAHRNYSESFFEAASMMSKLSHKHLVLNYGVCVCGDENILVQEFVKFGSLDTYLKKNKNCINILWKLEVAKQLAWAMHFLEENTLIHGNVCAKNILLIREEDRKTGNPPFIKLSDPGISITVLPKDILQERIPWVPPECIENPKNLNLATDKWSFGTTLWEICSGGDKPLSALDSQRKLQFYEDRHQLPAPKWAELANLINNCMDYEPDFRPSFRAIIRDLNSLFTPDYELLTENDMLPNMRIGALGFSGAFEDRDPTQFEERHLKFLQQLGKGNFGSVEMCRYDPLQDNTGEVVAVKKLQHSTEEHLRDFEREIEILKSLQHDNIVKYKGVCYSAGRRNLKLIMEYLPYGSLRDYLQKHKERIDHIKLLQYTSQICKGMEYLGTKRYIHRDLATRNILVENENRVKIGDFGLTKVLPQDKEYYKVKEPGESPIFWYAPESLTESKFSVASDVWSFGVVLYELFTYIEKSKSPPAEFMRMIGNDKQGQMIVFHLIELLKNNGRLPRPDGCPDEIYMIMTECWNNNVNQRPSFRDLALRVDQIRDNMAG

[7] = molecular target: JAK1 (Homo sapiens (Human), UniProt P23458); test: HTRF kinase assay, JAK1; assay type: biochemical; conditions: Table 6
JAK1, sequence (P23458 whole entry): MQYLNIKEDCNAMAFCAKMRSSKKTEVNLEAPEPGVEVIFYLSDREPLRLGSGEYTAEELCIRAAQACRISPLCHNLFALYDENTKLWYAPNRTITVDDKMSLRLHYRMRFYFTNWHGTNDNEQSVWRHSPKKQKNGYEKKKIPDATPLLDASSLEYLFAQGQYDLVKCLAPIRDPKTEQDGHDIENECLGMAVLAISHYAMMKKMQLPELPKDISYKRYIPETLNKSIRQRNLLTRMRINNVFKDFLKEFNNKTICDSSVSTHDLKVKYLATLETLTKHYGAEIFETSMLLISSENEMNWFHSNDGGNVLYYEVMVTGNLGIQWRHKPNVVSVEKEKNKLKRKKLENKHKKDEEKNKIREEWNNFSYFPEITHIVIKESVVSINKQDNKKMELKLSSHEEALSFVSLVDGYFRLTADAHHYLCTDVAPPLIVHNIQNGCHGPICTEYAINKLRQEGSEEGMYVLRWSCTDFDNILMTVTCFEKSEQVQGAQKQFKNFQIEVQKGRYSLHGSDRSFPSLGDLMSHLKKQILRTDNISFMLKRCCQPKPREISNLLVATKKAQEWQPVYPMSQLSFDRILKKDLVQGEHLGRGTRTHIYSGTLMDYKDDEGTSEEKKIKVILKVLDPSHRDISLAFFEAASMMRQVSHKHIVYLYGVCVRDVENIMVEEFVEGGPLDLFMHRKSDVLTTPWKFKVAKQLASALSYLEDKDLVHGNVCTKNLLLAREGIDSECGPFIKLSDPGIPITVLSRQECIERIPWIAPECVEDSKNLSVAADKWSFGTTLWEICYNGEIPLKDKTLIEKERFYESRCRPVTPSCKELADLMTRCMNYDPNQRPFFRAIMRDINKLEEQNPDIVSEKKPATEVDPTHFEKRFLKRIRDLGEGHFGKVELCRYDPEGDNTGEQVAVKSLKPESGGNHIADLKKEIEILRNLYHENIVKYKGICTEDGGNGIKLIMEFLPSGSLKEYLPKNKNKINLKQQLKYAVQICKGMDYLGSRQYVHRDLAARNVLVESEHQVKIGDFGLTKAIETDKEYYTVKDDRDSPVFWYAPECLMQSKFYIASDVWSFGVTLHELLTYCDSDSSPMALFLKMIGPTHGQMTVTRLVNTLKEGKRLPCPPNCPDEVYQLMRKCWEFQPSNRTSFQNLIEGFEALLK
Source text: (§9) A kinase assay with HTRF was used to observe JAK activity and calculate the IC50s of compounds disclosed herein. HTRF is an enzymatic assay used to determine the amount of phosphorylated peptide. FRET (Fluorescence Resonance Energy Transfer) is based on the transfer of energy between two fluorophores—a donor and an acceptor—when in close proximity. Molecular interactions between biomolecules can be assessed by coupling each partner with a fluorescent label and by detecting the level of energy transfer. The amount of phopshorylated peptide can be detected using a combination of a Eu 3+Cryptate labeled anti-phospho residue antibody, SA-XL665 and a biotinylated substrate. The signal is proportional to the concentration of phospho-residues.
(§10) Equipment Required • 1. […] Plate centrifuge • 3. Plate shaker • 4. […] Single channel and multi-channel pipettes • 6. Microplate reader (Pherastar)]
as §3, with “arrived. For Ruxolitinib the starting FAC is 1 μM.” for “arrived.”
(§11) • JAK-1: Invtirogen Cat: PR8767C • JAK-2: Invtirogen Cat: PR7820B • JAK-3: Invtirogen Cat: PR7507B • 3. Substrate (synthetic peptide-Biotinylated-N-terminal tag-[…] from Biopeptide) stock and FAC
(§12) • Adenosine 5′-triphosphate disodium salt hydrate: Sigma Cat: A26209 • 5. […] Buffers • Base buffer (for 50 ml)
(§13) • HTRF buffer: • 50 mM Tris-HCl, pH—7.5 • 100 mM NaCl • 0.1% BSA • 0.05% Tween20 • 0.5 mM EDTA
(§14) To a 384 well black-plate: • 1. Add 17 μL of the buffer to each well of the 384-well black plate • 2. […] Add 5 μl of the enzyme to each well of the plate • 4. Add 10 μl of the substrate and ATP mix to all the wells • 5. Cover with plate sealer • 6. […] Incubate at room temperature for 1 hour on shaker • 8. […] Add 37.5 μL of the HTRF mix to these wells. • 9. Incubate the plate at room temperature on shaker for 45 minutes. • 10.
as §8

[8] = molecular target: JAK3 (Homo sapiens (Human), UniProt P52333); test: HTRF kinase assay, JAK3; assay type: biochemical; conditions: Table 6
JAK3, sequence (P52333 whole entry): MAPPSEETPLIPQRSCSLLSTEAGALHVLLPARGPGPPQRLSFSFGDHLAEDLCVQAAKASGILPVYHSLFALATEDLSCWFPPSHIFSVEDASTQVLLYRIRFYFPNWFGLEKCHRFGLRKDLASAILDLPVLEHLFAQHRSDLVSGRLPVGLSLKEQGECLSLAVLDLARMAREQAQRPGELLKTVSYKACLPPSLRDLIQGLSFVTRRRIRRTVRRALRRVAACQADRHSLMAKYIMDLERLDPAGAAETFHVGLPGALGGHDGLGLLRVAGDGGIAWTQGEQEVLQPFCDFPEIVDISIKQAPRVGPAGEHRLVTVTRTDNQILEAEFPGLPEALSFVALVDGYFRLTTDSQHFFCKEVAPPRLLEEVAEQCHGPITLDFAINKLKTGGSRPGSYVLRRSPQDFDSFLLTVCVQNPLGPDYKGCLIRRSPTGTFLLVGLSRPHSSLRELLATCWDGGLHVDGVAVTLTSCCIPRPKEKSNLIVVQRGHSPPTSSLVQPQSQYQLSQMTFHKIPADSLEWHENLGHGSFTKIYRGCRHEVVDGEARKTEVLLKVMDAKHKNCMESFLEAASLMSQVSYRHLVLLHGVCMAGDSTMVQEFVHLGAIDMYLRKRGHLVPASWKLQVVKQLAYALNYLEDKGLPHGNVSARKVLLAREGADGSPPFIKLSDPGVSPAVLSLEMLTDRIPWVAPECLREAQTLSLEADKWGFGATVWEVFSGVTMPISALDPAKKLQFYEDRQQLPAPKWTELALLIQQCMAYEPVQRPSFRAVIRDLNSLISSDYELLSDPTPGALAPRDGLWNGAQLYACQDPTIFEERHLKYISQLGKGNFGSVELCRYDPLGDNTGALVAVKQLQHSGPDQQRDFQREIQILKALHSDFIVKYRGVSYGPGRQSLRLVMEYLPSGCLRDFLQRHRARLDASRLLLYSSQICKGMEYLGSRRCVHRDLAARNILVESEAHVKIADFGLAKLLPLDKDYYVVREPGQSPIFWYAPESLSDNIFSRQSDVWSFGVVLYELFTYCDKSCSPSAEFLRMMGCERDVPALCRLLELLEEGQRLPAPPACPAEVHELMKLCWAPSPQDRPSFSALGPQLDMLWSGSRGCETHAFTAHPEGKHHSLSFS
Source text: as §9, §10
as §3, with “arrived. For Ruxolitinib the starting FAC is 1 μM.” for “arrived.”
as §11, §12, §13, §14, §8

Structure (SMILES) | pIC50 [1] | pIC50 [2] | pIC50 [3] | pIC50 [4] | pIC50 [5] | pIC50 [6] | pIC50 [7] | pIC50 [8]
CN1CCN(c2ccc(Nc3ncc4ccn(-c5ccc(F)c(NS(=O)(=O)C(C)(C)C)c5)c4n3)cc2)CC1 [drawing 295] | 6.89 | 7.17 | 6.31 | 6.96 | 6.74 | 7.46 | 6.01 | 6.98
CC(C)(C)S(=O)(=O)Nc1cc(-n2ccc3cnc(Nc4cc(F)c5c(c4)CC4CNCCN54)nc32)ccc1F (centres unmarked) [drawing 443] | 7.10 | 7.07 | 6.63 | 7.09 | 6.73 | 7.40 | 5.43 | 6.69
CC(C)(C)S(=O)(=O)Nc1cccc(-n2ccc3cnc(Nc4ccc(C(=O)N5CCNCC5)c(F)c4)nc32)c1 [drawing 462] | 6.90 | 7.27 | 6.33 | 6.80 | 6.57 | 7.28 | 6.00 | 6.39
CC(C)(C)S(=O)(=O)Nc1cccc(-n2ccc3cnc(Nc4ccc(C(=O)NC5CCNCC5)c(F)c4)nc32)c1 | 6.40 | 7.00 | 6.33 | 7.11 | 6.51 | – | 6.69 | 6.62
CC(C)(C)S(=O)(=O)Nc1cccc(-n2ccc3cnc(Nc4ccc(C5CCNCC5)cc4)nc32)c1 | 6.17 | 6.49 | 5.85 | 6.24 | 6.49 | – | 6.33 | 7.00
COc1cc(Nc2ncc3ccn(-c4cccc(NS(=O)(=O)C(C)(C)C)c4)c3n2)ccc1N1CCN(C)CC1 | 6.37 | 6.89 | 6.13 | 6.79 | 6.44 | – | 6.53 | 7.09
CNC1CCN(c2ccc(Nc3ncc4ccn(-c5ccc(F)c(NS(=O)(=O)C(C)(C)C)c5)c4n3)cc2F)CC1 [drawing 457] | 6.82 | 7.06 | 6.38 | – | 6.52 | 7.28 | 5.00 | 6.22
Cc1cnc(Nc2ccc(N3CCN(C)CC3)c(F)c2)nc1Nc1ccc2c(c1)N(S(=O)(=O)C(C)(C)C)CC2 [drawing 246] | 7.03 | 6.95 | 6.60 | 6.74 | 6.64 | – | – | 6.50
Cc1cnc(Nc2ccc(C(=O)NC3CCN(C)CC3)c(F)c2)nc1Nc1ccc2c(c1)N(S(=O)(=O)C(C)(C)C)CC2 | 7.06 | 7.52 | 6.80 | 7.04 | 6.88 | 7.62 | 6.00 | –
CN1CCN(c2ccc(Nc3ncc4ccn(-c5cccc(NS(=O)(=O)C6CC6)c5)c4n3)cc2)CC1 [drawing 297] | 5.84 | 5.87 | 5.21 | 5.76 | 5.58 | 8.37 | – | 7.51
Cc1cnc(Nc2ccc(N3CCN(C)CC3)cc2)nc1Nc1cccc(NS(=O)(=O)C(C)(C)C)c1 [drawing 245] | 6.93 | 7.14 | 6.35 | 6.44 | 6.64 | 8.40 | – | –
CN1CCN(c2ccc(Nc3ncc4ccn(-c5cccc(NS(=O)(=O)C(C)(C)C)c5)c4n3)cc2)CC1 [drawing 260] | 6.66 | 6.76 | 6.15 | 6.57 | 6.16 | – | 6.61 | 6.90
Cc1cnc(Nc2ccc(OCCN3CCCC3)cc2)nc1Nc1cccc(NS(=O)(=O)C(C)(C)C)c1 | 6.38 | 6.35 | 6.17 | 6.07 | 6.20 | 8.64 | – | 6.73
Cc1cnc(Nc2ccc(N3CCN(C)CC3)cc2)nc1Nc1cccc(NS(=O)(=O)C(C)(C)C)c1 [drawing 271] | 6.66 | 7.14 | 6.35 | 6.44 | 6.64 | 8.15 | – | –
